Values joined by “and” are separate entries in the source; they are usually repeats but may differ in a detail not shown here. Identical values can stand only once. Toxic doses and inconclusive results are not listed. Square brackets hold non-standard residues; d marks the D form. Peptide text beside a SMILES is read from it. ξ: configuration not given here. ξE = NC(CCC(=O)O)C(=O)O
Test system: BDF1 mice, B16 melanoma ip, median survival T/C
Assay: NCI In Vivo Anticancer Drug Screen. Data for tumor model B16 Melanoma (intraperitoneal) in B6D2F1 (BDF1) mice
Settings: endpoint: median survival time, higher = longer survival
Method in brief: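 The ratio T/C compares compound-treated mice with vehicle-treated controls, using survival or tumor size as the endpoint in a transplantable tumor model.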

[1] = dose: 12.5 mg/kg/injection, schedule: Q01DX009 (ip), vehicle: saline
[2] = dose: 25.0 mg/kg/injection, schedule: Q01DX009 (ip), vehicle: saline
[3] = dose: 50.0 mg/kg/injection, schedule: Q01DX009 (ip), vehicle: saline
[4] = dose: 100.0 mg/kg/injection, schedule: Q01DX009 (ip), vehicle: saline
[5] = dose: 200.0 mg/kg/injection, schedule: Q01DX009 (ip), vehicle: saline
[6] = dose: 400.0 mg/kg/injection, schedule: Q01DX009 (ip), vehicle: saline
[7] = dose: 12.5 mg/kg/injection, schedule: Q01DX009 (ip), vehicle: Klucel (hydroxypropylcellulose) (HPC)
[8] = dose: 25.0 mg/kg/injection, schedule: Q01DX009 (ip), vehicle: Klucel (hydroxypropylcellulose) (HPC)
[9] = dose: 50.0 mg/kg/injection, schedule: Q01DX009 (ip), vehicle: Klucel (hydroxypropylcellulose) (HPC)
[10] = dose: 100.0 mg/kg/injection, schedule: Q01DX009 (ip), vehicle: Klucel (hydroxypropylcellulose) (HPC)
[11] = dose: 200.0 mg/kg/injection, schedule: Q01DX009 (ip), vehicle: Klucel (hydroxypropylcellulose) (HPC)
[12] = dose: 400.0 mg/kg/injection, schedule: Q01DX009 (ip), vehicle: Klucel (hydroxypropylcellulose) (HPC)
[13] = dose: 12.5 mg/kg/injection, schedule: Q01DX009 (ip), vehicle: saline with Tween-80
[14] = dose: 25.0 mg/kg/injection, schedule: Q01DX009 (ip), vehicle: saline with Tween-80
[15] = dose: 50.0 mg/kg/injection, schedule: Q01DX009 (ip), vehicle: saline with Tween-80
[16] = dose: 100.0 mg/kg/injection, schedule: Q01DX009 (ip), vehicle: saline with Tween-80
[17] = dose: 200.0 mg/kg/injection, schedule: Q01DX009 (ip), vehicle: saline with Tween-80

SMILES: O=c1[nH]c(=O)n(C2CC(O)C(CO)O2)cc1C(F)(F)F (stereo unspecified)
- T/C [1]: 104 % of control
- T/C (dose: 20.0 mg/kg/injection, schedule: Q01DX009 (ip), vehicle: saline): 105 % of control
- T/C [2]: 102 % of control
- T/C [3]: 112 % of control

SMILES: CNCC(O)c1ccc(O)cc1 (stereo unspecified)
- T/C [2]: 110 % of control
- T/C [3]: 115 % of control and 121 % of control
- T/C [4]: 110 % of control and 121 % of control
- T/C (dose: 150.0 mg/kg/injection, schedule: Q01DX009 (ip), vehicle: saline): 91 % of control
- T/C [5]: 106 % of control and 123 % of control
- T/C (dose: 300.0 mg/kg/injection, schedule: Q01DX009 (ip), vehicle: saline): 94 % of control
- T/C [6]: 110 % of control
- T/C (dose: 600.0 mg/kg/injection, schedule: Q01DX009 (ip), vehicle: saline): 89 % of control

SMILES: CCOP(=O)(O)CC(=O)NC(CC(=O)O)C(=O)O (stereo unspecified)
- T/C [7]: 97 % of control
- T/C [8]: 101 % of control
- T/C [9]: 92 % of control
- T/C [10]: 92 % of control
- T/C [11]: 97 % of control
- T/C [12]: 94 % of control

SMILES: CC1CCC2(C(=O)O)CCC3(C)C(=CCC4C5(C)CCC(O)C(C)(C)C5CCC43C)C2C1C (stereo unspecified)
- T/C [10]: 98 % of control
- T/C [11]: 91 % of control

SMILES: N#CC(Br)C(N)=O (stereo unspecified)
- T/C (dose: 2.5 mg/kg/injection, schedule: Q01DX009 (ip), vehicle: saline): 93 % of control
- T/C (dose: 5.0 mg/kg/injection, schedule: Q01DX009 (ip), vehicle: saline): 94 % of control

SMILES: Cc1ccc(C)c(CCN)c1
- T/C [13]: 104 % of control
- T/C [14]: 97 % of control

SMILES: CCN(CC)CCCC#CCN1CCOCC1
- T/C [3]: 115 % of control
- T/C [4]: 109 % of control
- T/C [5]: 100 % of control

SMILES: CC[n+]1c(-c2ccccc2)c2cc(N)ccc2c2ccc(N)cc21
- T/C (dose: 0.75 mg/kg/injection, schedule: Q01DX009 (ip), vehicle: water): 98 % of control
- T/C (dose: 1.0 mg/kg/injection, schedule: Q01DX009 (ip), vehicle: saline): 95 % of control
- T/C (dose: 1.5 mg/kg/injection, schedule: Q01DX009 (ip), vehicle: water): 106 % of control
- T/C (dose: 1.56 mg/kg/injection, schedule: Q01DX009 (ip), vehicle: saline): 105 % of control
- T/C (dose: 2.0 mg/kg/injection, schedule: Q01DX009 (ip), vehicle: saline): 95 % of control
- T/C (dose: 3.0 mg/kg/injection, schedule: Q01DX009 (ip), vehicle: water): 108 % of control
- T/C (dose: 3.12 mg/kg/injection, schedule: Q01DX009 (ip), vehicle: saline): 158 % of control
- T/C (dose: 4.0 mg/kg/injection, schedule: Q01DX009 (ip), vehicle: saline sonified): 120 % of control
- T/C (dose: 4.0 mg/kg/injection, schedule: Q01DX009 (ip), vehicle: saline): 108 % of control
- T/C (dose: 6.0 mg/kg/injection, schedule: Q01DX009 (ip), vehicle: water): 112 % of control
- T/C (dose: 8.0 mg/kg/injection, schedule: Q01DX009 (ip), vehicle: saline sonified): 115 % of control
- T/C (dose: 8.0 mg/kg/injection, schedule: Q01DX009 (ip), vehicle: saline): 108 % of control

SMILES: CC(C)C(Br)C(=O)NCC(=O)O (stereo unspecified)
- T/C [13]: 101 % of control
- T/C [14]: 95 % of control
- T/C [15]: 102 % of control

SMILES: COC(=O)c1ccc[n+](CCc2c[nH]c3ccccc23)c1
- T/C [13]: 108 % of control
- T/C [14]: 99 % of control
- T/C [15]: 97 % of control

SMILES: CC(Oc1ccccc1)C(=O)c1ccccc1 (stereo unspecified)
- T/C [16]: 90 % of control
- T/C [17]: 90 % of control
- T/C (dose: 400.0 mg/kg/injection, schedule: Q01DX009 (ip), vehicle: saline with Tween-80): 93 % of control

SMILES: c1ccc(OP(Oc2ccccc2)c2ccccc2)cc1
- T/C (dose: 50.0 mg/kg/injection, schedule: Q01DX009 (ip), vehicle: acetone): 113 % of control
- T/C (dose: 100.0 mg/kg/injection, schedule: Q01DX009 (ip), vehicle: acetone): 100 % of control
- T/C (dose: 200.0 mg/kg/injection, schedule: Q01DX009 (ip), vehicle: acetone): 100 % of control

SMILES: NCC(=O)NCC(=O)NC(CCC(=O)O)C(=O)O (stereo not drawn) (H-Gly-Gly-[ξE]-OH)
- T/C [3]: 101 % of control
- T/C [4]: 97 % of control
- T/C [5]: 94 % of control
- T/C [6]: 94 % of control

SMILES: C=CCN1CCC(C(=O)CC)(c2ccccc2)CC1
- T/C (dose: 10.0 mg/kg/injection, schedule: Q04DX003 (ip), vehicle: Klucel (hydroxypropylcellulose) (HPC)): 111 % of control
- T/C (dose: 20.0 mg/kg/injection, schedule: Q04DX003 (ip), vehicle: Klucel (hydroxypropylcellulose) (HPC)): 114 % of control
- T/C (dose: 40.0 mg/kg/injection, schedule: Q04DX003 (ip), vehicle: Klucel (hydroxypropylcellulose) (HPC)): 114 % of control

SMILES: COC1CCC2=C(C1)C(=O)CC1c3ccccc3CN21 (stereo unspecified)
- T/C [13]: 86 % of control
- T/C (dose: 12.5 mg/kg/injection, schedule: Q04DX003 (ip), vehicle: saline with Tween-80): 92 % of control
- T/C [14]: 93 % of control
- T/C (dose: 25.0 mg/kg/injection, schedule: Q04DX003 (ip), vehicle: saline with Tween-80): 105 % of control
- T/C [15]: 93 % of control
- T/C (dose: 50.0 mg/kg/injection, schedule: Q04DX003 (ip), vehicle: saline with Tween-80): 97 % of control

SMILES: CCN(CC)CCCC(C)NC/C=C/CNC(C)CCCN(CC)CC (stereo unspecified)
- T/C (dose: 6.25 mg/kg/injection, schedule: Q01DX009 (ip), vehicle: saline): 105 % of control
- T/C [1]: 103 % of control
- T/C [2]: 102 % of control

SMILES: C/C(=C\c1ccccc1)C(=O)c1ccccc1
- T/C (dose: 100.0 mg/kg/injection, schedule: Q04DX003 (ip), vehicle: saline with Tween-80): 100 % of control
- T/C (dose: 200.0 mg/kg/injection, schedule: Q04DX003 (ip), vehicle: saline with Tween-80): 113 % of control
- T/C (dose: 400.0 mg/kg/injection, schedule: Q04DX003 (ip), vehicle: saline with Tween-80): 92 % of control

SMILES: CC(CCc1ccccc1)NC(C)C(O)c1ccc(O)cc1 (stereo unspecified)
- T/C (dose: 6.25 mg/kg/injection, schedule: Q01DX009 (ip), vehicle: Klucel (hydroxypropylcellulose) (HPC)): 93 % of control
- T/C [7]: 105 % of control
- T/C [8]: 94 % of control
- T/C [9]: 105 % of control
- T/C [10]: 115 % of control

SMILES: CCCCCc1ccccc1
- T/C [10]: 106 % of control
- T/C [11]: 110 % of control
- T/C [12]: 90 % of control

SMILES: CC(=O)OC1C2CCC3C(C)(O)C4CC(O)C(C)(C)C4(O)C(O)CC13CC2(C)O (stereo unspecified)
- T/C (dose: 2.0 micrograms/kg/injection, schedule: Q01DX009 (ip), vehicle: Klucel (hydroxypropylcellulose) (HPC)): 101 % of control
- T/C (dose: 4.0 micrograms/kg/injection, schedule: Q01DX009 (ip), vehicle: Klucel (hydroxypropylcellulose) (HPC)): 92 % of control
- T/C (dose: 8.0 micrograms/kg/injection, schedule: Q01DX009 (ip), vehicle: Klucel (hydroxypropylcellulose) (HPC)): 99 % of control
- T/C (dose: 16.0 micrograms/kg/injection, schedule: Q01DX009 (ip), vehicle: Klucel (hydroxypropylcellulose) (HPC)): 98 % of control

SMILES: Cc1ccc([N+](=O)[O-])c2ccccc12
- T/C [16]: 97 % of control
- T/C [17]: 88 % of control

SMILES: O=C1NC(c2ccc3ccccc3c2)Nc2ccccc21 (stereo unspecified)
- T/C [10]: 96 % of control
- T/C [11]: 103 % of control
- T/C [12]: 90 % of control

SMILES: COC1CC(OC2CCC3(C)C(CCC45OC46CCC(C4=CC(=O)OC4)C6(C)CCC35)C2)OC(C)C1O (stereo unspecified)
- T/C (dose: 1.2 mg/kg/injection, schedule: Q01DX009 (ip), vehicle: saline): 98 % of control
- T/C (dose: 1.8 mg/kg/injection, schedule: Q01DX009 (ip), vehicle: saline): 101 % of control
- T/C (dose: 2.75 mg/kg/injection, schedule: Q01DX009 (ip), vehicle: saline): 87 % of control
- T/C [1]: 96 % of control
- T/C [2]: 89 % of control

SMILES: CCC1(O)CC(OC2CC(N(C)C)C(OC3CC(O)C(OC4CCC(=O)C(C)O4)C(C)O3)C(C)O2)c2c(cc3c(c2O)C(=O)c2c(O)ccc(O)c2C3=O)C1C(=O)OC (stereo unspecified)
- T/C (dose: 0.23 mg/kg/injection, schedule: Q01DX009 (ip), vehicle: saline with Tween-80): 98 % of control
- T/C (dose: 3.6 mg/kg/injection, schedule: Q01DX001 (ip), vehicle: water): 101 % of control and 109 % of control
- T/C (dose: 6.0 mg/kg/injection, schedule: Q01DX001 (ip), vehicle: water): 106 % of control and 112 % of control
- T/C (dose: 10.0 mg/kg/injection, schedule: Q01DX001 (ip), vehicle: water): 111 % of control

— PubChem BioAssay AID192 (DTP/NCI, 2004)
